Tested on: serum-starved C2C12 myotubes
Assay: release of radiolabeled phenylalanine (total protein degradation) from serum-starved C2C12 myotubes
Type: cell-based, murine
Settings: serum-free medium, 24 hours, vs serum (NC) and serum-free (NS) controls
Protocol: The role of EGCg alone and EGCg in combination with zinc in preventing muscle protein degradation was evaluated in an in vitro cell-based assay using serum-starved C2C12 myotubes, i.e., differentiated, elongated murine myoblasts, which are routinely used to model adult skeletal myofibers in cell culture. This assay measured the release of radiolabeled phenylalanine (Phe) from myotubes in response to a catabolic stimulus. Under normal growth conditions in the presence of growth factors supplied by 2% horse serum, the myotubes actively incorporated the amino acid Phe into newly synthesized muscle proteins. This is shown as the negative control for proteolysis (NC) in lane 1 of FIG. 1, i.e., the serum control. In the absence of the 2% horse serum, specifically C2C12 cultured in a serum-free DMEM medium, the muscle proteins began to break down, and phenylalanine was subsequently released as a free amino acid. This is shown as the serum-free, positive control for proteolysis (NS) in lane 2 of FIG. 1. […] 10 μM EGCg was added to serum-free and serum-starved myotubes alone, i.e., lane 3 of FIG. 1.
The experiment was replicated 2 times where n=6 over the same period of time for each sample, i.e., 24 hours for each sample. Results are expressed as mean±S.E.M and statistical analysis between groups was determined by one-way ANOVA followed by Tukey's test.

Row | SMILES | total protein degradation (release of radiolabeled Phe) (10 μM EGCg alone, FIG. 1 lane 3) | total protein degradation (release of radiolabeled Phe) (10 μM zinc sulfate alone, FIG. 2 lane 3)
1 | O=C(O[C@@H]1Cc2c(O)cc(O)cc2O[C@@H]1c1cc(O)c(O)c(O)c1)c1cc(O)c(O)c(O)c1 [EGCg, epigallocatechin gallate] | greater inhibition of total protein degradation | 
2 | O=S(=O)([O-])[O-].[Zn+2] [zinc, zinc sulfate] |  | promoted or increased total protein degradation
